# Measurements taken from patent publication US20040152674A1, “Pharmaceutically active compounds and methods of use thereof” (Trustees of Tufts College, priority 1998, published 2004).
# Assays:
# Assay in all cases: MIC by broth dilution method (Table 4)
# Format in all cases: cell-based
# Design in all cases: unit not given here
# S. aureus RN450 = S. aureus RN450 Tc^s; 18 hours
# Method: (§1) The minimum inhibitory concentration, the lowest concentration of drug that inhibits bacterial growth at 18 hours at their appropriate temperature, is determined by the broth dilution method using L-broth or Muller-Hinton broth. The Muller-Hinton broth was cation-adjusted accordingly and all bacteriological methods were performed as was described by Waitz, J. A., National Commision for Clinical Laboratory Standards Document M7-A2, vol.10, no. 8, pp.13-20, 2nd edition, Villanova, Pa. (1990). The organisms tested represent gram-positive and gram-negative bacterial species that are susceptible to tetracyclines or are resistant to tetracyclines due to the ability to efflux tetracyclines or which confer resistance by ribosomal protection mechanisms. The clinical strains used are either susceptible to tetracyclines or are resistant to them by either drug efflux or ribosomal protection.
# S. aureus MRSA5 = S. aureus MRSA5 Tc^r; 18 hours
# Method: as §1
# S. aureus RN4250 = S. aureus RN4250 Tc^r; 18 hours
# Method: as §1
# E. faecalis ATCC9790 = conditions: E. faecalis Tc^r ATCC9790; 18 hours
# Method: as §1
# S. aureus ATCC12715 = conditions: S. aureus Tc^r ATCC12715; 18 hours
# Method: as §1
# E. faecalis pMV158 = E. faecalis pMV158 Tc^r; 18 hours
# Method: as §1
# E. coli D31m4(pHCM1) = E. coli D31m4(pHCM1) Tcr; 18 hours
# Method: as §1
# E. coli D31m4 = conditions: E. coli D31m4* Tc^r, lipopolysaccharide-deficient mutant; 18 hours
# Method: as §1
# E. faecalis pAM211 = E. faecalis pAM211 Tc^r; 18 hours
# Method: as §1
SMILES,Antibacterial activity (minimum inhibitory concentration) (S. aureus RN450),Antibacterial activity (minimum inhibitory concentration) (S. aureus MRSA5),Antibacterial activity (minimum inhibitory concentration) (S. aureus RN4250),Antibacterial activity (minimum inhibitory concentration) (E. faecalis ATCC9790),Antibacterial activity (minimum inhibitory concentration) (S. aureus ATCC12715),Antibacterial activity (minimum inhibitory concentration) (E. faecalis pMV158),Antibacterial activity (minimum inhibitory concentration) (E. coli D31m4(pHCM1)),Antibacterial activity (minimum inhibitory concentration) (E. coli D31m4),Antibacterial activity (minimum inhibitory concentration) (E. faecalis pAM211)
"CC1c2ccc(C(C)(C)C)c(O)c2C(=O)C2=C(O)[C@]3(O)C(=O)C(C(N)=O)=C(O)[C@@H](N(C)C)C3C(O)C21 (stereo partly drawn) [A, [4S-(4alpha,12aalpha)]-9-(tert-butyl)-4-(dimethylamino)-1,4,4a,5,5a,6,11,12a-octahydro-3,5,10,12,12a-pentahydroxy-6-methyl-1,11-dioxo-2-naphthacenecarboxamide]",0.78,3.12,1.56,1.56,3.12,,,,
"CCC(=O)OC1C2C(=C(O)C3(O)C(=O)C(C(N)=O)=C(O)C(N(C)C)C13)C(=O)c1c(ccc(C(C)(C)C)c1O)C2C (stereo not drawn) [B, [4S-(4alpha,12aalpha)]-9-(tert-butyl)-4-(dimethylamino)-5-propionylcarbonyloxy-1,4,4a,5,5a,6,11,12a-octahydro-3,10,12,12a-tetrahydroxy-6-methyl-1,11-dioxo-2-naphthacenecarboxamide]",0.39,3.12,0.78,1.56,1.56,0.39,6.25,6.25,0.78
"CC(=O)OC1C2C(=C(O)C3(O)C(=O)C(C(N)=O)=C(O)C(N(C)C)C13)C(=O)c1c(ccc(C(C)(C)C)c1O)C2C (stereo not drawn) [C, [4S-(4alpha,12aalpha)]-9-(tert-butyl)-4-(dimethylamino)-5-acetylcarbonyloxy-1,4,4a,5,5a,6,11,12a-octahydro-3,10,12,12a-tetrahydroxy-6-methyl-1,11-dioxo-2-naphthacenecarboxamide]",0.39,1.56,0.39,0.78,0.78,0.39,3.12,3.12,0.78
"CC(=O)OC(CCC(C)C)c1ccc2c(c1O)C(=O)C1=C(O)C3(O)C(=O)C(C(N)=O)=C(O)C(N(C)C)C3C(O)C1C2C (stereo not drawn) [Compound N, [4S-(4alpha,12aalpha)]-9-[4′-(1′-acetoxy-4′-methyl)pentyl]-4-(dimethylamino)-1,4,4a,5,5a,6,11,12a-octahydro-3,5,10,12,12a-pentahydroxy-6-methyl-1,11-dioxo-2-naphthacenecarboxamide]",1.56,1.56,1.56,1.56,1.56,0.78,3.12,3.12,1.56
"CC1c2ccc(C(C)(C)C)c(O)c2C(=O)C2=C(O)[C@]3(O)C(=O)C(C(N)=O)=C(O)[C@@H](N(C)C)C3C(OC(=O)C3CCC3)C21 (stereo partly drawn) [D, [4S-(4alpha,12aalpha)]-9-(tert-butyl)-4-(dimethylamino)-5-cyclobutylcarbonyloxy-1,4,4a,5,5a,6,11,12a-octahydro-3,10,12,12a-tetrahydroxy-6-methyl-1,11-dioxo-2-naphthacenecarboxamide]",0.78,1.56,3.12,0.78,3.12,50,50,50,
"CC1c2ccc(C3(C)CCCCC3)c(O)c2C(=O)C2=C(O)[C@]3(O)C(=O)C(C(N)=O)=C(O)[C@@H](N(C)C)C3C(O)C21 (stereo partly drawn) [E, [4S-(4alpha,12aalpha)]-9-[1′-(1′-methyl)cyclohexyl]-4-(dimethylamino)-1,4,4a,5,5a,6,11,12a-octahydro-3,5,10,12,12a-pentahydroxy-6-methyl-1,11-dioxo-2-naphthacenecarboxamide]",1.56,6.25,6.25,0.39,6.25,,25,25,
"CC1c2ccc(C3(C)CCCC3)c(O)c2C(=O)C2=C(O)C3(O)C(=O)C(C(N)=O)=C(O)C(N(C)C)C3C(O)C21 (stereo not drawn) [F, [4S-(4alpha,12aalpha)]-9-[1′-(1′-methyl)cyclopentyl]-4-(dimethylamino)-1,4,4a,5,5a,6,11,12a-octahydro-3,5,10,12,12a-pentahydroxy-6-methyl-1,11-dioxo-2-naphthacenecarboxamide]",0.39,0.08,0.39,0.78,0.78,0.08,1.56,0.78,0.39
"CC1c2ccc(C3(C)CCC3)c(O)c2C(=O)C2=C(O)[C@]3(O)C(=O)C(C(N)=O)=C(O)[C@@H](N(C)C)C3C(O)C21 (stereo partly drawn) [G, [4S-(4alpha,12aalpha)]-9-[1′-(1′-methyl)cyclobutyl]-4-(dimethylamino)-1,4,4a,5,5a,6,11,12a-octahydro-3,5,10,12,12a-pentahydroxy-6-methyl-1,11-dioxo-2-naphthacenecarboxamide]",1.56,0.08,3.12,0.78,3.12,,6.25,6.25,
"CCCC(C)(C)c1ccc2c(c1O)C(=O)C1=C(O)[C@]3(O)C(=O)C(C(N)=O)=C(O)[C@@H](N(C)C)C3C(O)C1C2C (stereo partly drawn) [H, [4S-(4alpha,12aalpha)]-9-[2′-(2′-methyl)pentyl]-4-(dimethylamino)-1,4,4a,5,5a,6,11,12a-octahydro-3,5,10,12,12a-pentahydroxy-6-methyl-1,11-dioxo-2-naphthacenecarboxamide]",0.08,0.39,0.39,0.78,0.78,0.78,1.56,50,0.78
"CC1c2ccc(C(C)(C)CCCC#N)c(O)c2C(=O)C2=C(O)C3(O)C(=O)C(C(N)=O)=C(O)C(N(C)C)C3C(O)C21 (stereo not drawn) [L, [4S-(4alpha,12aalpha)]-9-[4′-(1′-cyano-4′-methyl)pentyl]-4-(dimethylamino)-1,4,4a,5,5a,6,11,12a-octahydro-3,5,10,12,12a-pentahydroxy-6-methyl-1,11-dioxo-2-naphthacenecarboxamide]",1.56,6.25,3.12,3.12,6.25,,,,
"CC1c2ccc(C(C)(C)CCC[N+](=O)[O-])c(O)c2C(=O)C2=C(O)[C@]3(O)C(=O)C(C(N)=O)=C(O)[C@@H](N(C)C)C3C(O)C21 (stereo partly drawn) [M, [4S-(4alpha,12a-alpha)]-9-[4′-(1′-nitro-4′-methyl)pentyl]-4-(dimethylamino)-1,4,4a,5,5a,6,11,12a-octahydro-3,5,10,12,12a-pentahydroxy-6-methyl-1,11-dioxo-2-naphthacenecarboxamide]",3.12,0.78,0.78,0.78,1.56,0.78,,12.5,0.78
